Source: patent US20110098309A1, “METHODS OF INHIBITING THE FORMATION OF AMYLOID-BETA DIFFUSABLE LIGANDS USING ACYLHYDRAZIDE COMPOUNDS” (priority 2007, published 2011)

Target: Aβ1-42 (Homo sapiens, UniProt P05067)
Assay: FRET assay of Aβ1-42 oligomer (ADDL) assembly inhibition
Assay type: biochemical
Conditions: 0.2 μM FITC-Aβ(1-42) and 0.8 μM Aβ(1-42), 37° C., six concentrations from about 10 μM to about 0.03 μM
From the text: Fluorescence (or Förster) Resonance Energy Transfer (FRET) is a distance-dependent, non-radiative transfer of energy in which the de-excitation of one fluorophore (donor) is coupled to excitation of another fluorophore (acceptor). FRET occurs if (1) the quantum of energy emitted by a donor fluorophore corresponds to an acceptor fluorophore's excitation energy, (2) the orientations of donor and acceptor transition dipoles are nearly parallel and (3) the donor fluorescent emission spectrum overlaps the acceptor absorption spectrum.
In this assay, assembly of Aβ1-42 oligomer formation is monitored by FRET using N-terminal conjugates of fluorescein-Aβ1-42 as both the donor and acceptor fluorophore (fluorescein-fluorescein Ro˜45 Å). […] Inhibition of Aβ1-42 assembly is observed as the absence or attenuation of fluorescein quenching.
FRET and FP assays are performed in 384-well Corning Non-Binding Surface, black, opaque microtiter plates, and the assay buffer consists of 25 mM MOPS-Tris (pH 8.0) with 100 mM MgCl2. The assay volume, containing 0.2 μM FITC-Aβ(1-42) and 0.8 μM Aβ(1-42), is 50 μl and the temperature is 37° C. […] Kinetic traces are collected by recording fluorescence intensity and polarization readings every five minutes over about a three hour time course. […] Positive control reactions contain all buffer components in the absence of added small molecule or antibody reagents. To test for ADDL assembly inhibition, the compound was incubated with the peptide mixture at six concentrations from about 10 μM decreasing to about 0.03 μM.

Chain of Aβ1-42 (P05067 672-713 limits assumed): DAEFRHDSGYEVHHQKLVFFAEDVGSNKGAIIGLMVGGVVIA

SMILES | IC50
Cc1cc(C(=O)N/N=C/c2c(O)ccc3ccccc23)[nH]n1 [Compound 97, N′-((2-hydroxynaphthalen-1-yl)methylene)-3-methyl-1H-pyrazole-5-carbohydrazide] | 30.6 µM
Cc1occc1C(=O)N/N=C/c1cc(Br)cc(Br)c1O [Compound 49, N′-(3,5-dibromo-2-hydroxy-benzylidene)-2-methylfuran-3-carbohydrazide] | 3.8 µM
COc1ccc(O)c(/C=N/NC(=O)c2ccccc2NS(C)(=O)=O)c1 [Compound 100, N-(2-(2-(2-hydroxy-5-methoxybenzylidene)hydrazinecarbonyl)phenyl)methanesulfonamide] | 33.2 µM
O=C(N/N=C(/c1cc(Cl)ccc1O)C(F)(F)F)c1ccccc1O [Compound 102, N′-(1-(5-chloro-2-hydroxyphenyl)-2,2,2-trifluoroethylidene)-2-hydroxybenzohydrazide] | 34 µM
O=C(N/N=C(/CC(=O)c1cccs1)C(F)(F)F)c1ccc(Br)cc1 [Compound 27, 4-bromo-N′-(1,1,1-trifluoro-4-oxo-4-(thiophen-2-yl)butan-2-ylidene)benzohydrazide] | 18.8 µM
Cc1cccc(C(=O)N/N=C(/CC(=O)c2cccs2)C(F)(F)F)c1O [Compound 25, 2-hydroxy-3-methyl-N′-(1,1,1-trifluoro-4-oxo-4-(thiophen-2-yl)butan-2-ylidene)benzohydrazide] | 16.3 µM
O=C(C/C(=N/NC(=O)c1ccccc1O)C(F)(F)F)c1cc2ccccc2s1 [Compound 8, N′-(4-(benzo[b]thiophen-2-yl)-1,1,1-trifluoro-4-oxobutan-2-ylidene)-2-hydroxy benzohydrazide] | 7.7 µM
CC(C)(C)C(=O)C/C(=N/NC(=O)c1sc2cc(F)ccc2c1Cl)C(F)(F)F [Compound 12, 3-chloro-6-fluoro-N′-(1,1,1-trifluoro-5,5-dimethyl-4-oxohexan-2-ylidene)benzo[b]thiophene-2-carbohydrazide] | 8.6 µM
O=C(C/C(=N/NC(=O)c1cccc2cc[nH]c12)C(F)(F)F)c1cccs1 [Compound 22, N′-(1,1,1-trifluoro-4-oxo-4-(thiophen-2-yl)butan-2-ylidene)-1H-indole-7-carbohydrazide] | 13.5 µM
O=C(C/C(=N\NC(=O)c1ccccc1O)C(F)(F)F)c1ccco1 [Compound 1, 2-hydroxy-N′-(1,1,1-trifluoro-4-(furan-2-yl)-4-oxobutan-2-ylidene)benzohydrazide] | 4.2 µM
O=C(C/C(=N/NC(=O)c1sc2cc(F)ccc2c1Cl)C(F)(F)F)c1cc2ccccc2s1 [Compound 17, N′-(4-(benzo[b]thiophen-2-yl)-1,1,1-trifluoro-4-oxobutan-2-ylidene)-3-chloro-6-fluorobenzo[b] thiophene-2-carbohydrazide] | 10.2 µM
CS(=O)(=O)Nc1ccccc1C(=O)N/N=C(/CC(=O)c1cccs1)C(F)(F)F [Compound 5, N-(2-(2-(1,1,1-trifluoro-4-oxo-4-(thiophen-2-yl)butan-2-ylidene)hydrazine-carbonyl)phenyl)methanesulfonamide] | 6 µM
COc1ccc(O)c(/C=N/NC(=O)c2[nH]c3ccccc3c2Cl)c1 [Compound 44, 3-chloro-N′-(2-hydroxy-5-methoxybenzylidene)-1H-indole-2-carbohydrazide] | 3.2 µM
NC(=O)c1ccccc1/C=N/NC(=O)c1ccccc1O [Compound 64, 2-((2-(2-hydroxybenzoyl)hydrazono)methyl)benzamide] | 7.1 µM
O=C(N/N=C/c1cc(Br)ccc1O)c1ccccc1O [Compound 50, N′-(5-bromo-2-hydroxy-benzylidene)-2-hydroxybenzohydrazide] | 4.1 µM
COc1ccc(O)c(/C=N/NC(=O)c2cc3ccccc3cc2O)c1 [Compound 37, 3-hydroxy-N′-(2-hydroxy-5-methoxy-benzylidene)-2-naphtho hydrazide] | 1.2 µM
O=C(N/N=C/c1ccc(O)cc1O)c1ccccc1NS(=O)(=O)c1ccc(Cl)cc1 [Compound 62, 4-chloro-N-(2-(2-(2,4-dihydroxy-benzylidene)hydrazine-carbonyl)phenyl)benzene-sulfonamide] | 6.7 µM
O=C(N/N=C/c1c(O)ccc2ccccc12)c1sc2cc(F)ccc2c1Cl [Compound 61, 3-chloro-6-fluoro-N′-((2-hydroxynaphthalen-1-yl)methylene) benzo[b]thiophene-2-carbohydrazide] | 6.7 µM
O=C(C/C(=N/NC(=O)c1[nH]c2ccccc2c1Cl)C(F)(F)F)c1cccs1 [Compound 30, 3-chloro-N′-(1,1,1-trifluoro-4-oxo-4-(thiophen-2-yl)butan-2-ylidene)-1H-indole-2-carbohydrazide] | 28.3 µM
O=C(N/N=C/c1cc([N+](=O)[O-])ccc1O)c1ccccc1O [Compound 99, 2-hydroxy-N′-(2-hydroxy-5-nitrobenzylidene)benzohydrazide] | 32.5 µM

SMILES | IC50
Cc1csc(C(=O)N/N=C(/CC(=O)c2cccs2)C(F)(F)F)c1Cl [Compound 21, 3-chloro-4-methyl-N′-(1,1,1-trifluoro-4-oxo-4-(thiophen-2-yl)butan-2-ylidene)thiophene-2-carbohydrazide] | 12.5 µM
O=C(C/C(=N\NC(=O)c1sc2ccccc2c1Cl)C(F)(F)F)c1ccco1 [Compound 15, 3-chloro-N′-(1,1,1-trifluoro-4-(furan-2-yl)-4-oxobutan-2-ylidene)benzo[b]thiophene-2-carbohydrazide] | 9.5 µM
Cc1cccc(/C=N/NC(=O)c2ccccc2O)c1O [Compound 96, 2-hydroxy-N′-(2-hydroxy-3-methylbenzylidene)benzohydrazide] | 28.6 µM
COc1ccc(O)c(/C=N/NC(=O)c2ccccc2NS(=O)(=O)c2ccc(Cl)cc2)c1 [Compound 71, 4-chloro-N-(2-(2-(2-hydroxy-5-methoxy-benzylidene)hydrazine-carbonyl)phenyl)benzene-sulfonamide] | 9.7 µM
Cn1nccc1C(=O)C/C(=N/NC(=O)c1ccccc1O)C(F)(F)F [Compound 9, 2-hydroxy-N′-(1,1,1-trifluoro-4-(1-methyl-1H-pyrazol-5-yl)-4-oxobutan-2-ylidene) benzohydrazide] | 8.2 µM
O=C(N/N=C/c1cc(Br)cc(I)c1O)c1cccc(F)c1 [Compound 39, N′-(5-bromo-2-hydroxy-3-iodobenzylidene)-3-fluoro-benzohydrazide] | 1.6 µM
COc1ccc(O)c(/C=N/NC(=O)c2cc(-c3ccc(Cl)s3)n[nH]2)c1 [Compound 107, 3-(5-chlorothiophen-2-yl)-N′-(2-hydroxy-5-methoxybenzylidene)-1H-pyrazole-5-carbohydrazide] | 40.1 µM
C/C(CC(N)=O)=N\NC(=O)c1ccccc1O [Compound 32, 3-(2-(2-hydroxybenzoyl)hydrazono)butanamide] | 35 µM
O=C(N/N=C/c1cc(Br)cc(Br)c1O)c1ccccc1O [Compound 42, N′-(3,5-dibromo-2-hydroxybenzylidene)-2-hydroxybenzohydrazide] | 2.8 µM
COc1ccc(O)c(/C=N/NC(=O)c2cc(C)ccc2O)c1 [Compound 73, 2-hydroxy-N′-(2-hydroxy-5-methoxy-benzylidene)-5-methyl-benzohydrazide] | 10.4 µM
O=C(C/C(=N/NC(=O)c1ccccc1NS(=O)(=O)c1ccc(Cl)cc1)C(F)(F)F)c1cccs1 [Compound 16, 4-chloro-N-(2-(2-(1,1,1-trifluoro-4-oxo-4-(thiophen-2-yl)butan-2-ylidene) hydrazinecarbonyl)phenyl)benzenesulfonamide] | 9.7 µM
COc1ccc(O)c(/C=N/NC(=O)c2ccc(-n3cccc3)cc2O)c1 [Compound 36, 2-hydroxy-N′-(2-hydroxy-5-methoxy-benzylidene)-4-(1H-pyrrol-1-yl) benzohydrazide] | 1 µM
O=C(N/N=C/c1c(O)ccc2ccccc12)c1ccc(O)cc1O [Compound 115, 2,4-dihydroxy-N′-((2-hydroxynaphthalen-1-yl)methylene)benzohydrazide] | 47.6 µM
O=C(C/C(=N/NC(=O)c1cc(Cl)ccc1O)C(F)(F)F)c1cccs1 [Compound 20, 5-chloro-2-hydroxy-N′-(1,1,1-trifluoro-4-oxo-4-(thiophen-2-yl)butan-2-ylidene)benzohydrazide] | 11.9 µM
COc1ccc(O)c(/C=N/NC(=O)c2cc(OC)ccc2O)c1 [Compound 82, 2-hydroxy-N′-(2-hydroxy-5-methoxy-benzylidene)-5-methoxy-benzohydrazide] | 15.1 µM
O=C(N/N=C(/CC(=O)N1CCN(Cc2ccccc2)CC1)C(F)(F)F)c1ccccc1O [Compound 3, N′-(4-(4-benzylpiperazin-1-yl)-1,1,1-trifluoro-4-oxobulan-2-ylidene)-2-hydroxy-benzohydrazide] | 5.2 µM
COc1ccc(O)c(/C=N/NC(=O)c2ccccc2O)c1 [Compound 83, 2-hydroxy-N′-(2-hydroxy-5-methoxy-benzylidene)benzohydrazide] | 15.4 µM
O=C(N/N=C/c1ccc2ccccc2c1O)c1ccccc1O [Compound 72, 2-hydroxy-N′-((1-hydroxy-naphthalen-2-yl)methylene)benzohydrazide] | 10.4 µM
C=CCc1cccc(/C=N/NC(=O)c2ccc(I)cc2)c1O [Compound 60, N′-(3-allyl-2-hydroxy-benzylidene)-4-iodo-benzohydrazide] | 6.5 µM
